Measured values: ChEMBL document CHEMBL1275533, “In vitro antibacterial activity of vertilmicin and its susceptibility to modifications by the recombinant AAC6'-APH2'' enzyme” (2008)
In brackets after ≈: the same amount, converted by molar mass. Activity calls are given as the source filed them. No cut-off for these calls is given here.

Tests used:
Morganella morganii [1] = assay: Antibacterial activity against gentamicin-resistant Morganella morganii clinical isolate assessed as susceptible isolates after 18 hrs by agar dilution method; format: functional
Staphylococcus aureus [2] = assay: Antibacterial activity against gentamicin-resistant Staphylococcus aureus clinical isolate after 18 hrs by agar dilution method; format: functional
Morganella morganii [3] = assay: Antibacterial activity against non-gentamicin-resistant Morganella morganii clinical isolate assessed as susceptible isolates after 18 hrs by agar dilution method; format: functional
Morganella morganii [4] = assay: Antibacterial activity against gentamicin-resistant Morganella morganii clinical isolate after 18 hrs by agar dilution method; format: functional
Pseudomonas aeruginosa [5] = assay: Antibacterial activity against non-gentamicin-resistant Pseudomonas aeruginosa clinical isolate after 18 hrs by agar dilution method; format: functional
Klebsiella pneumoniae [6] = assay: Antibacterial activity against non-gentamicin-resistant Klebsiella pneumoniae clinical isolate after 18 hrs by agar dilution method; format: functional
Enterococcus faecalis [7] = assay: Antibacterial activity against gentamicin-resistant Enterococcus faecalis clinical isolate after 18 hrs by agar dilution method; format: functional
Pseudomonas aeruginosa [8] = assay: Antibacterial activity against non-gentamicin-resistant Pseudomonas aeruginosa clinical isolate assessed as susceptible isolates after 18 hrs by agar dilution method; format: functional
Citrobacter freundii [9] = assay: Antibacterial activity against gentamicin-resistant Citrobacter freundii clinical isolate assessed as susceptible isolates after 18 hrs by agar dilution method; format: functional
Klebsiella pneumoniae [10] = assay: Antibacterial activity against gentamicin-resistant Klebsiella pneumoniae clinical isolate assessed as susceptible isolates after 18 hrs by agar dilution method; format: functional
Staphylococcus aureus [11] = assay: Antibacterial activity against non-gentamicin-resistant Staphylococcus aureus clinical isolate after 18 hrs by agar dilution method; format: functional
Escherichia coli [12] = assay: Antibacterial activity against non-gentamicin-resistant Escherichia coli clinical isolate after 18 hrs by agar dilution method; format: functional
[13] = system: Staphylococcus epidermidis; assay: Antibacterial activity against gentamicin-resistant Staphylococcus epidermidis clinical isolate assessed as susceptible isolates after 18 hrs by agar dilution method; format: functional
[14] = system: Acinetobacter calcoaceticus; assay: Antibacterial activity against gentamicin-resistant Acinetobacter calcoaceticus clinical isolate assessed as susceptible isolates after 18 hrs by agar dilution method; format: functional
Pseudomonas sp. [15] = assay: Antibacterial activity against non-gentamicin-resistant Pseudomonas spp. clinical isolate assessed as susceptible isolates after 18 hrs by agar dilution method; format: functional
Citrobacter koseri [16] = assay: Antibacterial activity against non-gentamicin-resistant Citrobacter diversus clinical isolate assessed as susceptible isolates after 18 hrs by agar dilution method; format: functional
Haemophilus influenzae = assay: Antibacterial activity against non-gentamicin-resistant Haemophilus influenzae clinical isolate after 18 hrs by agar dilution method; format: functional
Citrobacter freundii [17] = assay: Antibacterial activity against gentamicin-resistant Citrobacter freundii clinical isolate after 18 hrs by agar dilution method; format: functional
Providencia rettgeri [18] = assay: Antibacterial activity against gentamicin-resistant Proteus rettgeri clinical isolate assessed as susceptible isolates after 18 hrs by agar dilution method; format: functional
Morganella morganii [19] = assay: Antibacterial activity against non-gentamicin-resistant Morganella morganii clinical isolate after 18 hrs by agar dilution method; format: functional
Pseudomonas sp. [20] = assay: Antibacterial activity against non-gentamicin-resistant Pseudomonas spp. clinical isolate after 18 hrs by agar dilution method; format: functional
Providencia rettgeri [21] = assay: Antibacterial activity against non-gentamicin-resistant Proteus rettgeri clinical isolate assessed as susceptible isolates after 18 hrs by agar dilution method; format: functional
Klebsiella aerogenes [22] = assay: Antibacterial activity against non-gentamicin-resistant Enterobacter aerogenes clinical isolate after 18 hrs by agar dilution method; format: functional
Enterobacter cloacae [23] = assay: Antibacterial activity against gentamicin-resistant Enterobacter cloacae clinical isolate assessed as susceptible isolates after 18 hrs by agar dilution method; format: functional
[24] = system: Staphylococcus epidermidis; assay: Antibacterial activity against gentamicin-resistant Staphylococcus epidermidis clinical isolate after 18 hrs by agar dilution method; format: functional
Escherichia coli [25] = assay: Antibacterial activity against non-gentamicin-resistant Escherichia coli clinical isolate assessed as susceptible isolates after 18 hrs by agar dilution method; format: functional
[26] = system: Haemophilus parainfluenzae; assay: Antibacterial activity against non-gentamicin-resistant Haemophilus parainfluenzae clinical isolate after 18 hrs by agar dilution method; format: functional
Proteus mirabilis [27] = assay: Antibacterial activity against gentamicin-resistant Proteus mirabilis clinical isolate after 18 hrs by agar dilution method; format: functional
Proteus mirabilis [28] = assay: Antibacterial activity against non-gentamicin-resistant Proteus mirabilis clinical isolate after 18 hrs by agar dilution method; format: functional
Citrobacter freundii [29] = assay: Antibacterial activity against non-gentamicin-resistant Citrobacter freundii clinical isolate after 18 hrs by agar dilution method; format: functional
Serratia marcescens = assay: Antibacterial activity against gentamicin-resistant Serratia marcescens clinical isolate assessed as susceptible isolates after 18 hrs by agar dilution method; format: functional
Citrobacter koseri [30] = assay: Antibacterial activity against gentamicin-resistant Citrobacter diversus clinical isolate after 18 hrs by agar dilution method; format: functional
Pseudomonas aeruginosa [31] = assay: Antibacterial activity against gentamicin-resistant Pseudomonas aeruginosa clinical isolate after 18 hrs by agar dilution method; format: functional
Proteus mirabilis [32] = assay: Antibacterial activity against non-gentamicin-resistant Proteus mirabilis clinical isolate assessed as susceptible isolates after 18 hrs by agar dilution method; format: functional
Klebsiella aerogenes [33] = assay: Antibacterial activity against non-gentamicin-resistant Enterobacter aerogenes clinical isolate assessed as susceptible isolates after 18 hrs by agar dilution method; format: functional
Citrobacter koseri [34] = assay: Antibacterial activity against non-gentamicin-resistant Citrobacter diversus clinical isolate after 18 hrs by agar dilution method; format: functional
Klebsiella aerogenes [35] = assay: Antibacterial activity against gentamicin-resistant Enterobacter aerogenes clinical isolate assessed as susceptible isolates after 18 hrs by agar dilution method; format: functional
[36] = system: Acinetobacter calcoaceticus; assay: Antibacterial activity against gentamicin-resistant Acinetobacter calcoaceticus clinical isolate after 18 hrs by agar dilution method; format: functional
Enterobacter cloacae [37] = assay: Antibacterial activity against gentamicin-resistant Enterobacter cloacae clinical isolate after 18 hrs by agar dilution method; format: functional
Enterobacter cloacae [38] = assay: Antibacterial activity against non-gentamicin-resistant Enterobacter cloacae clinical isolate after 18 hrs by agar dilution method; format: functional
Pseudomonas aeruginosa [39] = assay: Antibacterial activity against gentamicin-resistant Pseudomonas aeruginosa clinical isolate assessed as susceptible isolates after 18 hrs by agar dilution method; format: functional
Escherichia coli [40] = assay: Antibacterial activity against gentamicin-resistant Escherichia coli clinical isolate after 18 hrs by agar dilution method; format: functional
[41] = system: Escherichia coli BL21(DE3); assay: Acetylation activity of AAC(6')-APH(2'') in Escherichia coli BL21(DE3) assessed as production of free pyridine-4-thiolate
Staphylococcus aureus [42] = assay: Antibacterial activity against gentamicin-resistant Staphylococcus aureus clinical isolate assessed as susceptible isolates after 18 hrs by agar dilution method; format: functional
Providencia rettgeri [43] = assay: Antibacterial activity against non-gentamicin-resistant Proteus rettgeri clinical isolate after 18 hrs by agar dilution method; format: functional
Enterococcus faecalis [44] = assay: Antibacterial activity against gentamicin-resistant Enterococcus faecalis clinical isolate assessed as susceptible isolates after 18 hrs by agar dilution method; format: functional, organism-based

Compound: CN[C@@H]1[C@@H](O)[C@@H](O[C@@H]2[C@@H](O)[C@H](O[C@@H]3OC(C(C)N)=CC[C@@H]3N)[C@@H](N)C[C@H]2N)OC[C@]1(C)O (stereo partly drawn) [VERDAMICIN]
- Activity (Morganella morganii [1]): 8.3%
- MIC50 (Staphylococcus aureus [2]): 32 µg/mL (≈ 69.3 µM)
- MIC90 (Staphylococcus aureus [2]): > 128 µg/mL
- Activity (Morganella morganii [3]): 100%
- MIC50 (Morganella morganii [4]): 64 µg/mL (≈ 139 µM)
- MIC90 (Morganella morganii [4]): 128 µg/mL (≈ 277 µM)
- MIC50 (Pseudomonas aeruginosa [5]): 8 µg/mL (≈ 17.3 µM)
- MIC90 (Pseudomonas aeruginosa [5]): 16 µg/mL (≈ 34.7 µM)
- MIC50 (Klebsiella pneumoniae [6]): 0.25 µg/mL (≈ 0.542 µM)
- MIC90 (Klebsiella pneumoniae [6]): 0.5 µg/mL (≈ 1.08 µM)
- MIC50 (Enterococcus faecalis [7]): 128 µg/mL (≈ 277 µM)
- MIC90 (Enterococcus faecalis [7]): > 128 µg/mL
- Activity (Pseudomonas aeruginosa [8]): 86.9%
- Activity (Citrobacter freundii [9]): 26.3%
- Activity (Klebsiella pneumoniae [10]): 10.7%
- MIC50 (Staphylococcus aureus [11]): 0.125 µg/mL (≈ 0.271 µM)
- MIC90 (Staphylococcus aureus [11]): 8 µg/mL (≈ 17.3 µM)
- MIC50 (Escherichia coli [12]): 0.5 µg/mL (≈ 1.08 µM)
- MIC90 (Escherichia coli [12]): 0.5 µg/mL (≈ 1.08 µM)
- Activity [13]: 50%
- Activity [14]: 16%
- Activity (Pseudomonas sp. [15]): 100%
- Activity (Citrobacter koseri [16]): 100%
- MIC50 (Haemophilus influenzae): 1 µg/mL (≈ 2.17 µM)
- MIC90 (Haemophilus influenzae): 1 µg/mL (≈ 2.17 µM)
- MIC50 (Citrobacter freundii [17]): 32 µg/mL (≈ 69.3 µM)
- MIC90 (Citrobacter freundii [17]): > 128 µg/mL
- Activity (Providencia rettgeri [18]): 20%
- MIC50 (Morganella morganii [19]): 1 µg/mL (≈ 2.17 µM)
- MIC90 (Morganella morganii [19]): 2 µg/mL (≈ 4.33 µM)
- MIC50 (Pseudomonas sp. [20]): 2 µg/mL (≈ 4.33 µM)
- MIC90 (Pseudomonas sp. [20]): 8 µg/mL (≈ 17.3 µM)
- Activity (Providencia rettgeri [21]): 100%
- MIC50 (Klebsiella aerogenes [22]): 0.5 µg/mL (≈ 1.08 µM)
- MIC90 (Klebsiella aerogenes [22]): 1 µg/mL (≈ 2.17 µM)
- Activity (Enterobacter cloacae [23]): 5.3%
- MIC50 [24]: 8 µg/mL (≈ 17.3 µM)
- MIC90 [24]: > 128 µg/mL
- Activity (Escherichia coli [25]): 98.1%
- MIC50 [26]: 1 µg/mL (≈ 2.17 µM)
- MIC90 [26]: 2 µg/mL (≈ 4.33 µM)
- MIC50 (Proteus mirabilis [27]): > 128 µg/mL
- MIC90 (Proteus mirabilis [27]): > 128 µg/mL
- MIC50 (Proteus mirabilis [28]): 1 µg/mL (≈ 2.17 µM)
- MIC90 (Proteus mirabilis [28]): 2 µg/mL (≈ 4.33 µM)
- MIC50 (Citrobacter freundii [29]): 0.5 µg/mL (≈ 1.08 µM)
- MIC90 (Citrobacter freundii [29]): 64 µg/mL (≈ 139 µM)
- Activity (Serratia marcescens): 10%
- MIC50 (Citrobacter koseri [30]): > 128 µg/mL
- MIC90 (Citrobacter koseri [30]): > 128 µg/mL
- MIC50 (Pseudomonas aeruginosa [31]): > 128 µg/mL
- MIC90 (Pseudomonas aeruginosa [31]): > 128 µg/mL
- Activity (Proteus mirabilis [32]): 100%
- Activity (Klebsiella aerogenes [33]): 98.1%
- MIC (Citrobacter koseri [34]): 0.25 µg/mL (≈ 0.542 µM)
- MIC50 (Citrobacter koseri [34]): 0.25 µg/mL (≈ 0.542 µM)
- MIC90 (Citrobacter koseri [34]): 0.5 µg/mL (≈ 1.08 µM)
- Activity (Klebsiella aerogenes [35]): 0%
- MIC50 [36]: > 128 µg/mL
- MIC90 [36]: > 128 µg/mL
- MIC50 (Enterobacter cloacae [37]): 128 µg/mL (≈ 277 µM)
- MIC90 (Enterobacter cloacae [37]): > 128 µg/mL
- MIC (Enterobacter cloacae [38]): 0.25 µg/mL (≈ 0.542 µM)
- MIC50 (Enterobacter cloacae [38]): 0.25 µg/mL (≈ 0.542 µM)
- MIC90 (Enterobacter cloacae [38]): 0.5 µg/mL (≈ 1.08 µM)
- Activity (Pseudomonas aeruginosa [39]): 2.9%
- MIC50 (Escherichia coli [40]): 32 µg/mL (≈ 69.3 µM)
- MIC90 (Escherichia coli [40]): 128 µg/mL (≈ 277 µM)
- Km [41]: 656 µM
- Activity (Staphylococcus aureus [42]): 5.6%
- MIC50 (Providencia rettgeri [43]): 2 µg/mL (≈ 4.33 µM)
- MIC90 (Providencia rettgeri [43]): 8 µg/mL (≈ 17.3 µM)
- Activity (Enterococcus faecalis [44]): inactive
